In patent US10653688B2, “6-(6-membered heteroaryl and aryl)isoquinolin-3-yl carboxamides and preparation and use thereof” (Samumed, LLC, priority 2017, dated 2020):
Like-named read-outs stand apart in the source and are kept apart here.

What was measured:
[1] = system: IL-6 in human peripheral blood mononuclear cells (huPBMCs); experiment: IL-6 inhibition in LPS-stimulated human peripheral blood mononuclear cells (HTRF); format: cell-based; conditions: Homo sapiens, PBMC; for EC50: LPS 50 ng/mL, 22 hours, IL-6 HTRF; for inhibition at 10 µM: read-out: percent inhibition at 10 μM (given for EC50 >10 μM), LPS, IL-6, 10 μM
In short: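 Fresh normal human PBMCs at 1×10e6 cells/mL in RPMI with 1% FBS received compound, then 50 ng/mL E. coli 0111:B4 LPS 2 h later, and were incubated a further 22 h at 37° C. IL-6 read by HTRF (665/620 nm ratio), normalized to DMSO; EC50 from 4-parameter fit.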

[2] = system: LL29 cells (primary human fibroblasts derived from IPF patients), α-smooth muscle actin; experiment: Inhibition of fibrotic process: TGF-β1-treated primary human fibroblasts, αSMA staining; format: cell-based; conditions: Homo sapiens, Fibroblast; for EC50: 96 h, TGF-β1 20 ng/mL, 4 days, % cells positive for αSMA; for inhibition at 10 µM: read-out: percent inhibition at 10 μM (given for EC50 >10 μM), TGF-β1, αSMA, 10 μM;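 for all read-outs here: controls were TGF-β1-stimulated wells with DMSO vehicle as the positive reference and cells given DMSO alone as the negative reference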
Procedure: Representative compounds were screened using primary human fibroblasts (derived from IPF patients) treated with TGF-β1 to determine their ability to inhibit the fibrotic process.
Human Fibroblast Cell Culture:
Each compound was dissolved in DMSO as a 10 mM stock and used to prepare compound source plates. […] LL29 cells were plated at 1,500 cells/well in 70 μL/well F12 medium supplemented with 1% Fetal Bovine Serum. […] Wells treated with TGF-β1 and containing DMSO were used as positive control, and cells with only DMSO were negative control. Cells were incubated at 37° C. and 5% CO2 for 4 days. Following incubation for 4 days, SYTOX green nucleic acid stain (Life Technologies [Thermo Fisher Scientific]) was added to the wells at a final concentration of 1 μM and incubated at room temperature for 30 min. Cells were then fixed using 4% formaldehyde (Electron Microscopy Sciences), washed 3 times with PBS followed by blocking and permeabilization using 3% Bovine Serum Albumin (BSA; Sigma) and 0.3% Triton X-100 (Sigma) in PBS.

recombinant GSK3β kinase = recombinant GSK3β kinase (Homo sapiens (Human), UniProt P49841); experiment: GSK3β kinase assay (Ser/Thr 09 peptide Z-lyte, FRET); format: biochemical;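 note: FRET read-out as coumarin over fluorescein emission ratio, compounds incubated one hour at room temperature, IC50 from dose-response curve fit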
recombinant GSK3β kinase, sequence (P49841 whole entry): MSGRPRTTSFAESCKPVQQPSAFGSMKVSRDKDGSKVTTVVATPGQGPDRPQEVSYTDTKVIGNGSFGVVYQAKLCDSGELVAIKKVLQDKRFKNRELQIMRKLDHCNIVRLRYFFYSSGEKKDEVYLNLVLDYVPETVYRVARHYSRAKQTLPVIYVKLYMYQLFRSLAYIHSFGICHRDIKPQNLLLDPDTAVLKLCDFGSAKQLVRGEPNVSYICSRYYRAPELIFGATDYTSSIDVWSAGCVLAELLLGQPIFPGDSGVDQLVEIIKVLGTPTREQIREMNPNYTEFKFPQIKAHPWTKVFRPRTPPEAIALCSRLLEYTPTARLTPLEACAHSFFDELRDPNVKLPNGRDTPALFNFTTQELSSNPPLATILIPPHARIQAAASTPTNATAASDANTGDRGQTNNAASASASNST
Procedure: Each compound is dissolved in DMSO as a 10 mM stock and used to prepare compound source plates. Serial dilution (1:3, 11-point dose-response curves from 10 M to 0.0003 M) and compound transfer was performed using the ECHO 550 (Labcyte, Sunnyvale, Calif.) into 1536-well black-walled round bottom plates (Corning).
This is a non-radioactive assay using fluorescence resonance energy transfer (FRET) between coumarin and fluorescein to detect kinase activity which is represented as ratio of coumarin emission/fluorescein emission.
The mixture is allowed to incubate with the representative compounds for one hour at room temperature. All reactions were performed in duplicate. Unphosphorylated (“0% Control”) and phosphorylated (“100% control”) forms of Ser/Thr 18 serve as control reactions.
After incubation, diluted Development Buffer is added to the reaction and allowed to further incubate for one hour at room temperature.
Dose-response curves are generated and inhibitory concentration (IC50) values are calculated using non-linear regression curve fit in the Dotmatics' Studies Software (Bishops Stortford, UK).

[3] = system: SW480 colon carcinoma cells; experiment: Cell viability assay (CellTiter-Glo); format: cell-based, human; conditions: Homo sapiens; for EC50: 96 h, four days, CellTiter-Glo; for inhibition at 10 µM: read-out: percent inhibition at 10 μM (given for EC50 >10 μM), 10 μM
[4] = system: pT212Tau in Dyrk1a- and MAPT-overexpressing HEK293T cells; experiment: Tau phosphorylation at Threonine 212 (pT212Tau) sandwich ELISA in double transfected cells; conditions: Homo sapiens, HEK-293T, read-out: Thr212 EC50 (μM)
Procedure: HEK293T cells (transfectable human embryonic kidney cells) were cultured in DMEM medium supplemented with 10% FBS and 1% penicillin/streptomycin.
HEK293T cells were transiently transfected to overexpress Dyrk1a and microtubule-associated protein Tau (MAPT) genes. Specifically, Dyrk1a and MAPT expression vectors were obtained from OriGene (10 μg of each, catalog numbers SC314641 and RC216166, respectively). […] HEK293T cells were seeded at 1.0×10^7 cells in 10 mL per T-75 flask. […] One T-75 flask was designated as a no-vector negative control for pT212Tau signal.
After 4-6 hours of incubation in transfection reagents, transiently double transfected HEK293T cells were dissociated by treatment with trypsin EDTA and seeded at 1.0×10^5 cells in 100 μL per well in 96-well plates. No-vector negative controls were seeded in separate 96-well plates to avoid the risk of the negative control cells picking up the overexpression during incubation.
96-well flat-bottom plates were coated with 100 μL per well anti-HT7 capture antibody (ThermoFisher, MN1000) diluted 1:300 in 1×PBS at 4° C. overnight, with shaking at 500 rpm.
Cells were then lysed with 100 μL 1×RIPA buffer supplemented with phosphatase and protease inhibitors (each diluted to a final 1×). […] V-bottom plates were centrifuged at 4000 rpm, 4° C., for 15 minutes, and 100 μL of lysate supernatant from each well was directly tested for pT212Tau signal by sandwich ELISA.

[5] = system: Wnt activity (SW480 colon carcinoma cells stably expressing the Sp5-Luc reporter gene); experiment: Wnt activity screening assay (Sp5-Luc reporter gene assay); format: cell-based, human; conditions: Homo sapiens; for EC50: 36 to 48 hours; for inhibition at 10 µM: read-out: percent inhibition at 10 μM (given for EC50 >10 μM), 10 μM
In short: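 SW480 colon carcinoma cells stably carrying a lentiviral luciferase reporter driven by an Sp5 promoter with eight TCF/LEF sites, plated at 4,000 cells/well in DMEM with 1% FBS. Compound exposure for 36–48 h at 37 °C, then luminescence read. Signals normalized to DMSO; EC50 from four-parameter nonlinear fit.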

[6] = biological target: recombinant DYRK1A kinase (Homo sapiens (Human), UniProt Q13627); experiment: DYRK1A kinase assay (Ser/Thr 18 peptide Z-lyte, FRET)
[7] = system: secreted cytokines TNFα, IL-6 and KC-GRO in BV-2 cells (mouse microglial cells); experiment: Secreted cytokines in lipopolysaccharide-stimulated mouse glial cell line; format: cell-based; conditions: LPS 250 ng/mL 5 hours, table does not say which cytokine
Procedure: Representative compounds were screened using the cell-based assay procedure for secreted cytokines in a Lipopolysaccharide-stimulated mouse glial cell line described below.
BV-2 cells (mouse microglial cells) were cultured in 1:1 DMEM medium supplemented with 10% FBS, and 1% penicillin/streptomycin.
BV-2 cells are plated at 35,000 cells/well in a volume of 100 μl for at least 4 hours before compounds are added. DMSO-resuspended compounds were first dispensed in a 96-well plate and serial diluted from 10 μM to 4.6 nM final concentration in medium. Compounds were added to cells overnight. 250 ng/mL of lipopolysaccharide (Escherichia coli O111:B4, SIGMA) was added for 5 hours. Supernatant is removed and saved for further cytokine detection. The original plates with seeded cells were tested for cytotoxicity by measure of adenosine triphosphate (ATP) release by adding CellTiter-Glo® diluted 1:4 in distilled water (G7573, Promega) and transferring lysed cells to a completely black 96-well plate to be read with the Cytation3. Supernatant was then diluted 1:2 with a diluent from V-PLEX cytokine Kit and directly tested for the secreted cytokines TNFα, IL-6 and KC-GRO using electrochemiluminescence (Meso Scale Discovery). The standard curve for each cytokine was used to convert the electrochemiluminescent signal into pg of protein per mL. The signal was used to plot, draw the curve fitting, and determine each compounds EC50 in Prism (GraphPad).

[8] = GSK3β kinase, head says EC50, method says IC50, ATP 46 μM
[9] = DYRK1A kinase, head says EC50, method says IC50, ATP 30 μM

## CN1CCCC(C(=O)Nc2cc3cc(-c4cnccn4)ccc3cn2)CC1 (centres unmarked) [Compound 80, 1-Methyl-N-(6-(pyrazin-2-yl)isoquinolin-3-yl)azepane-4-carboxamide]
[1]
  EC50: > 10 µM
  inhibition at 10 µM: 4.9%
[2]
  EC50: 9.13 µM
Recombinant GSK3β kinase; [8]
  EC50: 1.56 µM
[3]
  EC50: > 10 µM
  inhibition at 10 µM: 32%
[4]
  EC50: 1.4 µM
[5]
  EC50: > 10 µM
  inhibition at 10 µM: 9.6%
[6]; [9]
  EC50: 27 nM

## CC(C)(O)CN1CCCC(C(=O)Nc2cc3cc(-c4cnccn4)ccc3cn2)CC1 (centres unmarked) [Compound 82, 1-(2-Hydroxy-2-methylpropyl)-N-(6-(pyrazin-2-yl)isoquinolin-3-yl)azepane-4-carboxamide]
[1]
  EC50: > 10 µM
  inhibition at 10 µM: 9.9%
[2]
  EC50: 3.15 µM
Recombinant GSK3β kinase
  EC50: 1.54 µM
[3]
  EC50: > 10 µM
  inhibition at 10 µM: 20%
[4]
  EC50: 0.192 µM
[5]
  EC50: > 10 µM
  inhibition at 10 µM: 3.4%
[7]
  EC50: 717 nM
[6]
  EC50: 27 nM

## CN1CCC(c2nc(C(=O)Nc3cc4cc(-c5cccnc5)ccc4cn3)co2)CC1 [Compound 142, 2-(1-Methylpiperidin-4-yl)-N-(6-(pyridin-3-yl)isoquinolin-3-yl)oxazole-4-carboxamide]
[1]
  EC50: > 10 µM
  inhibition at 10 µM: 7.8%
[2]
  EC50: > 10 µM
  inhibition at 10 µM: 8.8%
Recombinant GSK3β kinase; [8]
  EC50: > 10 µM
[3]
  EC50: > 10 µM
  inhibition at 10 µM: 16.9%
[5]
  EC50: 3.5 µM
[6]; [9]
  EC50: 689 nM

## CN1CCC(c2nc(C(=O)Nc3cc4cc(-c5cncc(F)c5)ccc4cn3)co2)CC1 [Compound 143, N-(6-(5-Fluoropyridin-3-yl)isoquinolin-3-yl)-2-(1-methylpiperidin-4-yl) oxazole-4-carboxamide]
[1]
  EC50: > 10 µM
  inhibition at 10 µM: 8.2%
[2]
  EC50: 2.44 µM
Recombinant GSK3β kinase; [8]
  EC50: > 10 µM
[3]
  EC50: > 10 µM
  inhibition at 10 µM: 8%
[5]
  EC50: > 10 µM
  inhibition at 10 µM: 0.8%
[6]; [9]
  EC50: 6800 nM

## Nc1cncc(-c2ccc3cnc(NC(=O)c4coc(C5CCNCC5)n4)cc3c2)c1 [Compound 148, N-(6-(5-Aminopyridin-3-yl)isoquinolin-3-yl)-2-(piperidin-4-yl)oxazole-4-carboxamide]
[1]
  EC50: 1.78 µM
[2]
  EC50: 1.19 µM
Recombinant GSK3β kinase; [8]
  EC50: > 10 µM
[3]
  EC50: 0.441 µM
[5]
  EC50: 0.266 µM
[6]; [9]
  EC50: 12 nM

## CC(C)N1CCC(c2nc(C(=O)Nc3cc4cc(-c5cccnc5)ccc4cn3)co2)CC1 [Compound 149, 2-(1-Isopropylpiperidin-4-yl)-N-(6-(pyridin-3-yl)isoquinolin-3-yl)oxazole-4-carboxamide]
[1]
  EC50: 3.79 µM
[2]
  EC50: 3.4 µM
Recombinant GSK3β kinase; [8]
  EC50: > 10 µM
[3]
  EC50: > 10 µM
  inhibition at 10 µM: 39%
[5]
  EC50: 7.84 µM
[6]; [9]
  EC50: 102 nM

## CC(C)N1CCC(c2nc(C(=O)Nc3cc4cc(-c5cncc(F)c5)ccc4cn3)co2)CC1 [Compound 150, N-(6-(5-Fluoropyridin-3-yl)isoquinolin-3-yl)-2-(1-isopropylpiperidin-4-yl) oxazole-4-carboxamide]
[1]
  EC50: > 10 µM
  inhibition at 10 µM: 10.7%
[2]
  EC50: > 10 µM
  inhibition at 10 µM: 42%
Recombinant GSK3β kinase
  EC50: > 10 µM
[3]
  EC50: > 10 µM
  inhibition at 10 µM: 10.9%
[5]
  EC50: > 10 µM
  inhibition at 10 µM: 15.2%
[6]
  EC50: 1630 nM
